Data taken from ChEMBL document CHEMBL2440076, “New triarylpyrazoles as broad-spectrum anticancer agents: design, synthesis, and biological evaluation” (Eur J Med Chem, 2013).

Legend:
Format in all cases: functional
[1] = system: UO-31; test: Growth inhibition of human UO31 cells assessed as cell growth at 5X10'-6 M after 48 hrs by sulforhodamine B assay; conditions: UO-31, 48 h, read-out: Activity
[2] = system: OVCAR-4; test: Growth inhibition of human OVCAR4 cells assessed as cell growth at 5X10'-6 M after 48 hrs by sulforhodamine B assay; conditions: OVCAR-4, 48 h, read-out: Activity
[3] = system: UACC-257; test: Growth inhibition of human UACC257 cells assessed as cell growth at 3X10'-9 M after 48 hrs by sulforhodamine B assay; conditions: UACC-257, 48 h, read-out: Activity
[4] = system: NCI-H522; test: Growth inhibition of human NCI-H522 cells assessed as cell growth at 3X10'-9 M after 48 hrs by sulforhodamine B assay; conditions: NCI-H522, 48 h, read-out: Activity
[5] = system: MDA-MB-231; test: Growth inhibition of human MDA-MB-231 cells assessed as cell growth at 3X10'-5 M after 48 hrs by sulforhodamine B assay; conditions: MDA-MB-231, 48 h, read-out: Activity
[6] = system: SF-539; test: Growth inhibition of human SF539 cells assessed as cell growth at 3X10'-8 M after 48 hrs by sulforhodamine B assay; conditions: SF-539, 48 h, read-out: Activity
[7] = system: NCI-H522; test: Growth inhibition of human NCI-H522 cells assessed as cell growth at 3X10'-8 M after 48 hrs by sulforhodamine B assay; conditions: NCI-H522, 48 h, read-out: Activity
[8] = system: HL-60(TB); test: Growth inhibition of human HL-60(TB) cells assessed as cell growth at 3X10'-7 M after 48 hrs by sulforhodamine B assay; conditions: HL-60, 48 h, read-out: Activity
[9] = system: U-251; test: Growth inhibition of human U251 cells assessed as cell growth at 3X10'-6 M after 48 hrs by sulforhodamine B assay; conditions: U-251, 48 h, read-out: Activity
[10] = system: NCI-H460; test: Growth inhibition of human NCI-H460 cells assessed as cell growth at 3X10'-9 M after 48 hrs by sulforhodamine B assay; conditions: NCI-H460, 48 h, read-out: Activity
[11] = system: SNB-19; test: Growth inhibition of human SNB19 cells assessed as cell growth at 3X10'-7 M after 48 hrs by sulforhodamine B assay; conditions: SNB-19, 48 h, read-out: Activity
[12] = system: KM12; test: Growth inhibition of human KM12 cells assessed as cell growth at 3X10'-5 M after 48 hrs by sulforhodamine B assay; conditions: KM12, 48 h, read-out: Activity
[13] = system: UACC-62; test: Growth inhibition of human UACC62 cells assessed as cell growth at 3X10'-5 M after 48 hrs by sulforhodamine B assay; conditions: UACC-62, 48 h, read-out: Activity
[14] = system: RPMI-8226; test: Growth inhibition of human RPMI8226 cells assessed as cell growth at 3X10'-7 M after 48 hrs by sulforhodamine B assay; conditions: RPMI-8226, 48 h, read-out: Activity
[15] = system: RPMI-8226; test: Growth inhibition of human RPMI8226 cells assessed as cell growth at 3X10'-6 M after 48 hrs by sulforhodamine B assay; conditions: RPMI-8226, 48 h, read-out: Activity
[16] = system: RPMI-8226; test: Growth inhibition of human RPMI8226 cells assessed as cell growth at 3X10'-8 M after 48 hrs by sulforhodamine B assay; conditions: RPMI-8226, 48 h, read-out: Activity
[17] = system: KM12; test: Growth inhibition of human KM12 cells assessed as cell growth at 3X10'-8 M after 48 hrs by sulforhodamine B assay; conditions: KM12, 48 h, read-out: Activity
[18] = system: SR; test: Growth inhibition of human SR cells assessed as cell growth at 3X10'-5 M after 48 hrs by sulforhodamine B assay; conditions: read-out: Activity
[19] = system: MDA-MB-468; test: Growth inhibition of human MDA-MB-468 cells assessed as cell growth at 3X10'-8 M after 48 hrs by sulforhodamine B assay; conditions: MDA-MB-468, 48 h, read-out: Activity
[20] = system: UACC-62; test: Growth inhibition of human UACC62 cells assessed as cell growth at 3X10'-8 M after 48 hrs by sulforhodamine B assay; conditions: UACC-62, 48 h, read-out: Activity
[21] = system: IGROV-1; test: Growth inhibition of human IGROV1 cells assessed as cell growth at 3X10'-5 M after 48 hrs by sulforhodamine B assay; conditions: IGROV-1, 48 h, read-out: Activity
[22] = Growth inhibition of human NCI-ADR-RES cells assessed as cell growth at 3X10'-9 M after 48 hrs by sulforhodamine B assay; conditions: read-out: Activity
[23] = system: SNB-19; test: Growth inhibition of human SNB19 cells assessed as cell growth at 3X10'-8 M after 48 hrs by sulforhodamine B assay; conditions: SNB-19, 48 h, read-out: Activity
[24] = system: A498; test: Growth inhibition of human A498 cells assessed as cell growth at 3X10'-5 M after 48 hrs by sulforhodamine B assay; conditions: A498, 48 h, read-out: Activity
[25] = system: MCF7; test: Growth inhibition of human MCF7 cells assessed as cell growth at 3X10'-7 M after 48 hrs by sulforhodamine B assay; conditions: MCF7, 48 h, read-out: Activity
[26] = system: SF-268; test: Growth inhibition of human SF268 cells assessed as cell growth at 3X10'-5 M after 48 hrs by sulforhodamine B assay; conditions: SF-268, 48 h, read-out: Activity
[27] = system: CAKI-1; test: Growth inhibition of human CAKI-1 cells assessed as cell growth at 3X10'-6 M after 48 hrs by sulforhodamine B assay; conditions: CAKI-1, 48 h, read-out: Activity
[28] = system: SF-539; test: Growth inhibition of human SF539 cells assessed as cell growth at 3X10'-9 M after 48 hrs by sulforhodamine B assay; conditions: SF-539, 48 h, read-out: Activity
[29] = system: OVCAR-8; test: Growth inhibition of human OVCAR8 cells assessed as cell growth at 3X10'-9 M after 48 hrs by sulforhodamine B assay; conditions: OVCAR-8, 48 h, read-out: Activity
[30] = system: T47D; test: Growth inhibition of human T47D cells assessed as cell growth at 3X10'-9 M after 48 hrs by sulforhodamine B assay; conditions: read-out: Activity
[31] = system: SF-268; test: Growth inhibition of human SF268 cells assessed as cell growth at 3X10'-6 M after 48 hrs by sulforhodamine B assay; conditions: SF-268, 48 h, read-out: Activity
[32] = system: K562; test: Growth inhibition of human K562 cells assessed as cell growth at 3X10'-5 M after 48 hrs by sulforhodamine B assay; conditions: K562, 48 h, read-out: Activity
[33] = system: NCI-H23; test: Growth inhibition of human NCI-H23 cells assessed as cell growth at 3X10'-9 M after 48 hrs by sulforhodamine B assay; conditions: NCI-H23, 48 h, read-out: Activity
[34] = Growth inhibition of human NCI-ADR-RES cells assessed as cell growth at 3X10'-7 M after 48 hrs by sulforhodamine B assay; conditions: read-out: Activity
[35] = system: HT-29; test: Growth inhibition of human HT-29 cells assessed as cell growth at 3X10'-7 M after 48 hrs by sulforhodamine B assay; conditions: HT-29, 48 h, read-out: Activity
[36] = system: SF-295; test: Growth inhibition of human SF295 cells assessed as cell growth at 3X10'-5 M after 48 hrs by sulforhodamine B assay; conditions: SF-295, 48 h, read-out: Activity
[37] = system: KM12; test: Growth inhibition of human KM12 cells assessed as cell growth at 3X10'-9 M after 48 hrs by sulforhodamine B assay; conditions: KM12, 48 h, read-out: Activity

Structure (SMILES): COc1cc(-c2nn(-c3cccc(NC(=O)Nc4cc(C(F)(F)F)cc(C(F)(F)F)c4)c3)cc2-c2ccncc2)ccc1Cl
- growth at 5 µM [1]: -90%
- growth at 5 µM [2]: 8%

Structure (SMILES): COc1cc(-c2nn(-c3cccc(NC(=O)c4ccc(Cl)c(C(F)(F)F)c4)c3)cc2-c2ccncc2)ccc1Cl
- growth at 0.003 µM [3]: 93%
- growth at 0.003 µM [4]: 89%
- growth at 30 µM [5]: 3%
- growth at 0.03 µM [6]: 102%
- growth at 0.03 µM [7]: 94%
- growth at 0.3 µM [8]: 116%
- growth at 3 µM [9]: 49%
- growth at 0.003 µM [10]: 103%
- growth at 0.3 µM [11]: 97%
- growth at 30 µM [12]: 17%
- growth at 30 µM [13]: 20%
- growth at 0.3 µM [14]: 94%
- growth at 3 µM [15]: 31%
- growth at 0.03 µM [16]: 100%
- growth at 0.03 µM [17]: 96%
- growth at 30 µM [18]: 4%
- growth at 0.03 µM [19]: 91%
- growth at 0.03 µM [20]: 99%
- growth at 30 µM [21]: 8%
- growth at 0.003 µM [22]: 97%
- growth at 0.03 µM [23]: 96%
- growth at 30 µM [24]: -9%
- growth at 0.3 µM [25]: 89%
- growth at 30 µM [26]: 23%
- growth at 3 µM [27]: 44%
- growth at 0.003 µM [28]: 100%
- growth at 0.003 µM [29]: 100%
- growth at 0.003 µM [30]: 95%
- growth at 3 µM [31]: 56%
- growth at 30 µM [32]: 11%
- growth at 0.003 µM [33]: 93%
- growth at 0.3 µM [34]: 91%
- growth at 0.3 µM [35]: 93%
- growth at 30 µM [36]: -10%
- growth at 0.003 µM [37]: 98%

Structure (SMILES): COc1cc(-c2nn(-c3cccc(NC(=O)c4cccc(C(F)(F)F)c4)c3)cc2-c2ccncc2)ccc1Cl
- growth at 5 µM [1]: 20%
- growth at 5 µM [2]: 34%

Structure (SMILES): COc1cc(-c2nn(-c3cccc(NC(=O)Nc4ccc(Cl)c(Cl)c4)c3)cc2-c2ccncc2)ccc1Cl
- growth at 5 µM [2]: 6%

Structure (SMILES): COc1cc(-c2nn(-c3cccc(NC(=O)Nc4cccc(C(F)(F)F)c4)c3)cc2-c2ccncc2)ccc1Cl
- growth at 5 µM [1]: -15%
- growth at 5 µM [2]: 6%
